# Assay results as given in publication PMC4861463, “A Molecular Switch Abrogates Glycoprotein 100 (gp100) T-cell Receptor (TCR) Targeting of a Human Melanoma Antigen” (The Journal of Biological Chemistry, 2016).
# Entries after “also recorded” stand apart in the source; their conditions may differ.
# Tests used:
# [1] = system: gp100 TCR-transduced CD8+ T-cells; assay: MIP-1β production by ELISA after stimulation with peptide-pulsed T2 target cells; type: cell-based, Human; settings: peptide titration; 6 × 10^4 T2 cells pulsed 1 h + 3 × 10^4 T-cells, overnight; ELISA of supernatant; duplicate; Fig. 6A
# [2] = system: gp100 TCR-transduced CD8+ T-cells; assay: 4-h 51Cr release cytotoxicity assay against peptide-pulsed T2 targets; type: cell-based, Human; settings: 37 °C, effector/target ratio 5, 51Cr-labelled T2 cells, peptide titration, duplicate, Fig. 6B
# [3] = molecular target: gp100 TCR (TRAV17 TRBV19); assay: SPR affinity analysis of gp100 TCR binding to HLA-A*0201-peptide complexes; design: species or system Human; settings: SPR equilibrium analysis, triplicate; for gp100 TCR (TRAV17 TRBV19), affinity KD: biotinylated HLA-A*0201-peptide complex (500–600 RU) on streptavidin CM5 chip, 9–10 serial dilutions of soluble TCR
# [4] = molecular target: PMEL17 TCR (TRAV21 TRBV7-3); assay: SPR affinity analysis of PMEL17 TCR binding to HLA-A*0201-peptide complexes; design: species or system Human; settings: SPR equilibrium analysis, triplicate; for PMEL17 TCR (TRAV21 TRBV7-3), affinity KD: biotinylated HLA-A*0201-peptide complex (500–600 RU) on streptavidin CM5 chip, 9–10 serial dilutions of soluble TCR
# [5] = system: gp100-specific TCR-transfected human T-cells; settings: cited from earlier work
# Excerpt: Thus, in order to study the individual contribution of the peptide residues invo ... || We also provide insight into the role of each residue in gp100^280–288 during TCR recognition by performing an alanine scan mutagenesis with two different gp100^280–288-specific αβTCRs. […] These observations are consisten ...
Sequence,MIP-1β production [1],specific lysis of peptide-pulsed target cells [2],"Kd ([3]; read-out: gp100 TCR (TRAV17 TRBV19), affinity KD, biotinylated HLA-A*0201-peptide complex on streptavidin CM5 chip) [mM]","Kd ([4]; read-out: PMEL17 TCR (TRAV21 TRBV7-3), affinity KD, biotinylated HLA-A*0201-peptide complex on streptavidin CM5 chip) [mM]","gp100 TCR (TRAV17 TRBV19), affinity KD [3]","gp100 TCR (TRAV17 TRBV19), affinity KD ([3]; listed as A2-YLE-3A)",agonist activity for a different gp100-specific TCR [5],"PMEL17 TCR (TRAV21 TRBV7-3), affinity KD [4]","PMEL17 TCR (TRAV21 TRBV7-3), affinity KD ([4]; listed as A2-YLE-3A)"
YLEPAPVTA [YLE-5A],No MIP-1β production,no cytotoxic T lymphocyte-mediated lysis,> 1,> 1,–,–,–,–,–
YLAPGPVTA [YLE-3A],No MIP-1β production,no cytotoxic T lymphocyte-mediated lysis,–,–,No binding,completely abrogated binding,null agonist,complete absence of measurable binding; also recorded: No binding,completely abrogated binding
